Assay results: PubChem BioAssay (NCI)
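48-hour exposure; five concentrations; linearly interpolated endpoints. At the GI50, growth is halved. The concentration for full growth arrest is given as TGI.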

What was measured:
Test in all cases: NCI-60 cell line screen, 48 h
U251 CNS = test system: U251 CNS
HT29 colon = test system: HT29 colon
UO-31 renal = test system: UO-31 renal
TK-10 renal = test system: TK-10 renal
UACC-257 melanoma = test system: UACC-257 melanoma
OVCAR-5 ovarian = test system: OVCAR-5 ovarian
UACC-62 melanoma = test system: UACC-62 melanoma
786-0 renal = test system: 786-0 renal
SK-OV-3 ovarian = test system: SK-OV-3 ovarian
SN12C renal = test system: SN12C renal
HS 578T breast = test system: HS 578T breast
HCT-15 colon = test system: HCT-15 colon
HCC-2998 colon = test system: HCC-2998 colon
SNB-19 CNS = test system: SNB-19 CNS
PC-3 prostate = test system: PC-3 prostate
K-562 leukemia = test system: K-562 leukemia
HOP-62 NSCLC = test system: HOP-62 NSCLC
OVCAR-8 ovarian = test system: OVCAR-8 ovarian
RPMI-8226 leukemia = test system: RPMI-8226 leukemia
LOX IMVI melanoma = test system: LOX IMVI melanoma
MALME-3M melanoma = test system: MALME-3M melanoma
SK-MEL-5 melanoma = test system: SK-MEL-5 melanoma
A549 NSCLC = test system: A549 NSCLC
SK-MEL-28 melanoma = test system: SK-MEL-28 melanoma
HOP-92 NSCLC = test system: HOP-92 NSCLC
SF-268 CNS = test system: SF-268 CNS
HCT-116 colon = test system: HCT-116 colon
SF-295 CNS = test system: SF-295 CNS

COc1ccc(N(CC(=O)NCCC[Te]c2ccccc2)C(=O)CNC(=O)OC(C)(C)C)cc1
TGI (U251 CNS): 6.51 µM
GI50 (HT29 colon): 3.82 µM
TGI (HT29 colon): 13.9 µM
GI50 (UO-31 renal): 2.38 µM
TGI (UO-31 renal): 9.04 µM
GI50 (TK-10 renal): 3.93 µM
TGI (TK-10 renal): 10.8 µM
GI50 (UACC-257 melanoma): 8.49 µM
TGI (UACC-257 melanoma): 23.9 µM
GI50 (OVCAR-5 ovarian): 3 µM
TGI (OVCAR-5 ovarian): 7.48 µM
GI50 (UACC-62 melanoma): 1.65 µM
TGI (UACC-62 melanoma): 3.79 µM
GI50 (786-0 renal): 3.75 µM
TGI (786-0 renal): 13 µM
GI50 (SK-OV-3 ovarian): 2.34 µM
TGI (SK-OV-3 ovarian): 4.83 µM
GI50 (SN12C renal): 2.06 µM
TGI (SN12C renal): 4.97 µM
GI50 (HS 578T breast): 2.77 µM
TGI (HS 578T breast): 7.31 µM
GI50 (HCT-15 colon): 3.15 µM
TGI (HCT-15 colon): 11.7 µM
GI50 (HCC-2998 colon): 2.6 µM
TGI (HCC-2998 colon): 6.6 µM
GI50 (SNB-19 CNS): 0.875 µM
TGI (SNB-19 CNS): 9.64 µM
GI50 (PC-3 prostate): 1.72 µM
TGI (PC-3 prostate): 10.1 µM
GI50 (K-562 leukemia): 5.5 µM
TGI (K-562 leukemia): > 100 µM
GI50 (HOP-62 NSCLC): 2.19 µM
TGI (HOP-62 NSCLC): 4.73 µM
GI50 (OVCAR-8 ovarian): 2.41 µM
TGI (OVCAR-8 ovarian): 6.92 µM
GI50 (RPMI-8226 leukemia): 2.4 µM
TGI (RPMI-8226 leukemia): 7.3 µM
GI50 (LOX IMVI melanoma): 2.33 µM
TGI (LOX IMVI melanoma): 5.76 µM
GI50 (MALME-3M melanoma): 15.7 µM
TGI (MALME-3M melanoma): 32.8 µM
GI50 (SK-MEL-5 melanoma): 3.13 µM
TGI (SK-MEL-5 melanoma): 9.13 µM
GI50 (A549 NSCLC): 0.521 µM
TGI (A549 NSCLC): 2.17 µM
GI50 (SK-MEL-28 melanoma): 3.07 µM
TGI (SK-MEL-28 melanoma): 10.1 µM
GI50 (HOP-92 NSCLC): 2.36 µM
TGI (HOP-92 NSCLC): 4.94 µM
GI50 (SF-268 CNS): 2.7 µM
TGI (SF-268 CNS): 7.56 µM
GI50 (HCT-116 colon): 2.07 µM
TGI (HCT-116 colon): 6.45 µM
GI50 (SF-295 CNS): 1.27 µM
TGI (SF-295 CNS): 4.11 µM
